Data set [1] deals with SARS-CoV-2 Omicron hCoV-19/USA/MD HP20874/2021 (B.1.1.529) strain. The experiment in a line: In vitro antiviral activity against SARS-CoV-2 Omicron B.1.1.529 in Calu-3 cells (NP ELISA, percent virus reduction). In kind it is cell-based. The settings on record: Severe acute respiratory syndrome coronavirus 2, Calu-3, 48 h. In general terms: ELISA stands for enzyme-linked immunosorbent assay.

Data set [2] in a line: in vivo. On the procedure:
At Model Pharmacokinetic Properties Testing
Oral administration: the compound was administered with a volume ratio of Solutol:PEG400:Tween80:Saline=10:40:2:48 at a dose of 10 mg/kg. blood was taken continuously from the fundus venous plexus at 0.25 h, 0.5 h, 1 h, 2 h, 4 h, 8 h, 10 h, 12 h, and 24 h after administration in EP tubes containing EDTA, centrifuged at 8000 rpm/min for 5 min and then the upper layer of plasma was frozen at −80° C. and stored for LC-MS/MS analysis.
Intravenous administration: the compound was administered with a volume ratio of 10% DMSO/30% PEG400/60% water at a dose of 1 mg/kg). At 0.0833 h, 0.25 h, 0.5 h, 1 h, 2 h, 4 h, 8 h, 12 h and 24 h after drug administration, blood was serially collected from the fundus venous plexus in EP tubes containing EDTA, centrifuged at 8000 rpm/min for 5 min and then the upper layer of plasma was frozen at −80° C. and stored for LC-MS/MS analysis.
The pharmacokinetic parameters were calculated using WinNonlin software base on the blood concentration-time data obtained from the tests.

The nature of data set [3]: in vivo. The following applies: crab-eating monkey, plasma. On the procedure:
Crab-Eating Monkey Pharmacokinetic Properties Testing
Oral administration: the compound was administered with a volume ratio of Solutol:PEG400:Tween80:Saline=10:40:2:48 at a dose of 2 mg/kg. The blood was taken continuously at 0.25 h, 0.5 h, 1 h, 2 h, 4 h, 8 h, 10 h, 12 h and 24 h after drug administration in EP tubes containing EDTA, centrifuged at 8000 rpm/min for 5 min, and then the upper layer of plasma was frozen at −80° C. and stored for LC-MS/MS analysis.
Intravenous administration: the compound was administered with 10% DMSO/30% PEG400/60% water at a dose of 1 mg/kg). The blood was taken continuously at 0.0833 h, 0.25 h, 0.5 h, 1 h, 2 h, 4 h, 8 h, 12 h and 24 h after drug administration in EP tubes containing EDTA, centrifuged at 8000 rpm/min for 5 min and then the upper layer of plasma was frozen at −80° C. and stored for LC-MS/MS analysis.
The pharmacokinetic parameters were calculated from the blood concentration-time data obtained from the tests using WinNonlin software.

In data set [4] the test system is hCoV-19/USA/Chicago IL/2022 (BA.5.2). Briefly: In vitro antiviral activity against SARS-CoV-2 BA.5.2 in Calu-3 cells (NP ELISA, percent virus reduction). In kind it is cell-based. The settings on record: Severe acute respiratory syndrome coronavirus 2, Calu-3, 48 h.
The mark [5] stands for this setting: intravenous, 1 mg/kg, read-out: Intravenous injection AUClast.
Where [6] appears, read: oral, 2 mg/kg, read-out: Oral AUClast.

Read-outs that look alike come from different tables or passages of the source.

By EC50 is commonly meant the midpoint of the concentration-response curve. Low values mean a more potent agent, high ones a less potent agent. As for `[2H]C([2H])([2H])n1cc2cc(Nc3nc(=O)n(Cc4cscn4)c(=O)n3Cc3cc(F)c(F)cc3F)c(Cl)cc2n1` [Compound 16], the EC50 in data set [1] is 16 nM; in data set [4], 22 nM. Further, the AUC(0-t) in data set [2] (iv, 1 mg/kg) was 7040 ng·h/mL; in data set [2] (po, 10 mg/kg), 139000 ng·h/mL; in data set [3] (setting [5]), 3680 ng·h/mL; in data set [3] (setting [6]), 10100 ng·h/mL.

`[2H]C([2H])([2H])n1cc2cc(Nc3nc(=O)n(Cc4ccon4)c(=O)n3Cc3cc(F)c(F)cc3F)c(Cl)cc2n1` [Compound 17]: the results for the EC50 in data set [1] and in data set [4] were 30 nM and 16 nM, respectively. Further, the AUC(0-t) was 25400 ng·h/mL in data set [2] (iv, 1 mg/kg); 189000 ng·h/mL in data set [2] (po, 10 mg/kg); 41000 ng·h/mL in data set [3] (setting [5]); 64300 ng·h/mL in data set [3] (setting [6]).

Take `[2H]C([2H])([2H])n1cc2cc(Nc3nc(=O)n(Cc4cocn4)c(=O)n3Cc3cc(F)c(F)cc3F)c(Cl)cc2n1` [Compound 18]: the AUC(0-t) in data set [3] (setting [5]) was determined as 4890 ng·h/mL; in data set [3] (setting [6]), 10400 ng·h/mL.

On to `Cn1cc2cc(Nc3nc(=O)n(Cc4cocn4)c(=O)n3Cc3cc(F)c(F)cc3F)c(Cl)cc2n1` [Compound 26], for which the AUC(0-t) in data set [2] (iv, 1 mg/kg) came out at 7790 ng·h/mL; in data set [2] (po, 10 mg/kg), 14100 ng·h/mL.

`[2H]C([2H])([2H])n1cc2cc(Nc3nc(=O)n(Cc4cscn4)c(=O)n3Cc3cc(F)c(F)c(F)c3)c(Cl)cc2n1` [Compound 40]: the half-maximal effective concentration (EC50) in data set [1] was 23 nM; in data set [4], 40 nM. The AUC(0-t) in data set [2] (iv, 1 mg/kg) came to 9880 ng·h/mL; in data set [2] (po, 10 mg/kg), 134000 ng·h/mL; in data set [3] (setting [5]), 36500 ng·h/mL; in data set [3] (setting [6]), 62400 ng·h/mL.

For the molecule `[2H]C([2H])([2H])n1cc2cc(Nc3nc(=O)n(Cc4ccon4)c(=O)n3Cc3cc(F)c(F)c(F)c3)c(Cl)cc2n1` [Compound 41], the EC50 in data set [1] worked out at 31 nM; in data set [4] it was 33 nM. The AUC(0-t) in data set [2] (iv, 1 mg/kg) worked out at 26500 ng·h/mL; in data set [2] (po, 10 mg/kg) it was 234000 ng·h/mL; in data set [3] (setting [5]) it was 40600 ng·h/mL; in data set [3] (setting [6]) it was 63300 ng·h/mL.

Regarding `O=c1nc(Nc2cc3cn(CCO)nc3cc2Cl)n(Cc2cc(F)c(F)cc2F)c(=O)n1Cc1ccon1` [Compound 70], the EC50 in data set [1] is 18 nM; in data set [4] it was 21 nM. Further, the AUC(0-t) in data set [3] (setting [5]) came to 4870 ng·h/mL; in data set [3] (setting [6]), 9880 ng·h/mL.

Take `Cn1cc2cc(Nc3nc(=O)n(Cc4nccs4)c(=O)n3Cc3cc(F)c(F)cc3F)c(Cl)cc2n1` [Compound 71]: the EC50 is 34 nM in data set [1] and 45 nM in data set [4].

With `Cn1cc2cc(Nc3nc(=O)n(Cc4ncsn4)c(=O)n3Cc3cc(F)c(F)cc3F)c(Cl)cc2n1` [Compound 78], the EC50 in data set [1] was found to be 67 nM; in data set [4], 59 nM.

On to `O=c1nc(Nc2cc3cn(CCO)nc3cc2Cl)n(Cc2cc(F)c(F)cc2F)c(=O)n1Cc1cscn1` [Compound 97], for which the AUC(0-t) in data set [2] (iv, 1 mg/kg) was found to be 5670 ng·h/mL; in data set [2] (po, 10 mg/kg), 7660 ng·h/mL.

`[2H]c1c2cc(Nc3nc(=O)n(Cc4ccon4)c(=O)n3Cc3cc(F)c(F)cc3F)c(Cl)cc2nn1C` [Compound 107]: the AUC(0-t) in data set [2] (iv, 1 mg/kg) worked out at 21400 ng·h/mL; in data set [2] (po, 10 mg/kg) it was 209000 ng·h/mL.

Source of the values: patent US20240025885A1, “TRIAZINE DERIVATIVES AND METHODS OF USE THEREOF” (priority 2022, published 2024).
